Here are results for 25 molecules from ChEMBL document CHEMBL4028831, “Improvement of hERG-ROMK index of spirocyclic ROMK inhibitors through scaffold optimization and incorporation of novel pharmacophores” (Bioorg Med Chem Lett, 2017).

The target of series [1] is Voltage-gated inwardly rectifying potassium channel KCNH2 (Homo sapiens, UniProt Q12809). Nature of the series: Displacement of [35S]MK499 from human ERG expressed in HEK293 cells. (In general: In a radioligand displacement assay an active substance lowers the binding of a labelled ligand.)
The species named for the next series is Homo sapiens. Nature of the series: Selectivity ratio of IC50 for human ERG expressed in HEK293 cells to IC50 for human ROMK expressed in HEK293 cells. It is filed as cell-based.
The subject of series [2] is Rattus norvegicus. Nature of the series: Antihypertensive activity in rat spontaneous hypertensive model assessed as change in systolic blood pressure at 25 mg/kg, po qd measured after 3 days. It is filed as functional.
Series [3] is described as follows: Oral bioavailability in Wistar Han rat at 1 mg/kg. As to conditions: in vivo. In kind it is ADME, organism-based.
For series [4], the system named is Rattus norvegicus. Nature of the series: Dose normalized AUC in Wistar Han rat at 1 mg/kg, po. It is filed as ADME, organism-based. The following applies: in vivo.
Series [5] in a line: Volume of distribution at steady state in Wistar Han rat at 0.5 mg/kg, iv or 1 mg/kg, po. It is filed as ADME, organism-based. As to conditions: in vivo, read-out: Vdss.
The nature of series [6]: Clearance in Wistar Han rat at 0.5 mg/kg, iv or 1 mg/kg, po. It is filed as ADME, organism-based. As to conditions: in vivo.
A short description of series [7]: Half life in Wistar Han rat at 0.5 mg/kg, iv or 1 mg/kg, po. In kind it is ADME, organism-based. As to conditions: in vivo.
Series [8] concerns Rattus norvegicus. Nature of the series: Antihypertensive activity in rat spontaneous hypertensive model assessed as induction of kaliuresis at 3 mg/kg, po qd measured after 3 days. In kind it is functional, organism-based.
Series [9] relates to Rattus norvegicus. Put plainly: Antihypertensive activity in rat spontaneous hypertensive model assessed as change in systolic blood pressure at 3 mg/kg, po qd measured after 3 days. In kind it is functional.
Series [10] is described as follows: Clearance in Beagle dog at 1 mg/kg, iv. In kind it is ADME, organism-based, Canis lupus familiaris. The following applies: in vivo.
A short description of series [11]: Volume of distribution at steady state in Beagle dog at 1 mg/kg, iv. The following applies: in vivo, read-out: Vdss. In kind it is ADME, organism-based, Canis lupus familiaris.
Series [12] relates to Rattus norvegicus. Put plainly: Antihypertensive activity in rat spontaneous hypertensive model assessed as induction of diuresis at 3 mg/kg, po qd measured after 3 days. In kind it is functional, organism-based.
In series [13] the test system is Rattus norvegicus. Nature of the series: Antihypertensive activity in rat spontaneous hypertensive model assessed as induction of natriuresis at 3 mg/kg, po qd measured after 3 days. In kind it is functional, organism-based.
Series [14] can be described thus: Half life in Beagle dog at 1 mg/kg, iv. It is filed as ADME, organism-based, Canis lupus familiaris. The following applies: in vivo.
Series [15] has as its target T1, ATP-sensitive inward rectifier potassium channel 1 (Homo sapiens, UniProt P48048).
T1 sequence (P48048 whole entry): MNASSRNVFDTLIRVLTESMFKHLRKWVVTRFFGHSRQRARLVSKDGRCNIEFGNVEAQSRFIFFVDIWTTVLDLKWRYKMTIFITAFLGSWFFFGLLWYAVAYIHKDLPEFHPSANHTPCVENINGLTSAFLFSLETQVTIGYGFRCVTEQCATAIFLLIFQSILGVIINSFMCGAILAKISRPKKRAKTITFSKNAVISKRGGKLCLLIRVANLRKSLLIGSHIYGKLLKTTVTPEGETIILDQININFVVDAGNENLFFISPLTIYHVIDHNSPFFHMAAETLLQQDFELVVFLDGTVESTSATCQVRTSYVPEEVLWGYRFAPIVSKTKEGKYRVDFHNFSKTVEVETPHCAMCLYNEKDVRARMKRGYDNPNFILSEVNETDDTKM
Put plainly: Inhibition of human ROMK channel expressed in HEK293 cells after 30 mins by FLIPR based thallium flux assay. In kind it is cell-based.

Series [16] concerns the target T1, ATP-sensitive inward rectifier potassium channel 1. Put plainly: Inhibition of human ROMK expressed in CHO cells at -70 mV holding potential after 6 mins by whole cell patch clamp Qpatch method. It is filed as cell-based.
Series [17] can be described thus: Clearance in rat at 0.5 mg/kg, iv. The following applies: in vivo.

SMILES strings stand for the structures. pIC50: −log10 of the molar value. Activity calls are given as the source filed them.

Chain of Voltage-gated inwardly rectifying potassium channel KCNH2 (Q12809 whole entry): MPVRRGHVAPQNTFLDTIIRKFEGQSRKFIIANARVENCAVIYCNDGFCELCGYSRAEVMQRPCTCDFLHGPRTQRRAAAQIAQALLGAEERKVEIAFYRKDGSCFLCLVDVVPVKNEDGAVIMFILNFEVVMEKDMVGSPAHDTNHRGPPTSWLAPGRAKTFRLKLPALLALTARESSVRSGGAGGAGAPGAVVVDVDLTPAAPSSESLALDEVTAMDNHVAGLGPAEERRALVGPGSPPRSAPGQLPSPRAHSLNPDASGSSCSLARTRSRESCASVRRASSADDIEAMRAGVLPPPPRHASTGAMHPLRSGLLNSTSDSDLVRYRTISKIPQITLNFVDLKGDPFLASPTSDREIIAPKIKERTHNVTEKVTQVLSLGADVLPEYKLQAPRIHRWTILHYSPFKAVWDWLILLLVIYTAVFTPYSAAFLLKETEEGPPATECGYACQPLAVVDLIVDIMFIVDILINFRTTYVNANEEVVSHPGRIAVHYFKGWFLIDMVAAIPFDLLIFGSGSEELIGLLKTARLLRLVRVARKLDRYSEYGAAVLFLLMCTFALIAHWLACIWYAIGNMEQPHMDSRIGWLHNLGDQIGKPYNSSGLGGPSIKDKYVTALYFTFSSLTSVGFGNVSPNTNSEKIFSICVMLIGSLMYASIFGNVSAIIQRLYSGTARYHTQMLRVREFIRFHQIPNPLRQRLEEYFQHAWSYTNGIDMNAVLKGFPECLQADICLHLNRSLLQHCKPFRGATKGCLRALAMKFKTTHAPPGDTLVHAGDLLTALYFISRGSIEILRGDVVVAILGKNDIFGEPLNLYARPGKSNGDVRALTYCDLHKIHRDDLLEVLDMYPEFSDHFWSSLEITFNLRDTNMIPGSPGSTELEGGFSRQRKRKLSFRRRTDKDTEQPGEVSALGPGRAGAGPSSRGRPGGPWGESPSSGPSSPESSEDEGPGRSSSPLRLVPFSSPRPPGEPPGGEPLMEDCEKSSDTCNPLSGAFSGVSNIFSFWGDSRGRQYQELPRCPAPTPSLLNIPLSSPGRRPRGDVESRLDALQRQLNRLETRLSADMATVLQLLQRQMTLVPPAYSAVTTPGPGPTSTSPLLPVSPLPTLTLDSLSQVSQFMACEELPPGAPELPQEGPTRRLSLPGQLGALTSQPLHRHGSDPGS

Usually pIC50 stands for the IC50 on a negative log10 scale, so that one unit is a factor of ten. As to `Cc1c([C@@H](O)CN2CCC3(CC2)CCN(c2cc(-c4ccccc4)no2)C3=O)ccc2c1COC2=O`, the pIC50 in [1] was 7.27. Moreover, the Ratio IC50 in the series listed under Homo sapiens stood at 0.11.
Regarding `NS(=O)(=O)c1cc2c(cc1Cl)NCNS2(=O)=O` [HYDROCHLOROTHIAZIDE], the Activity in the series with Rattus norvegicus [2] is reported as -7 mmHg.
By half-life is commonly meant the time needed for the level to fall by half in the phase considered. For `Cc1c([C@@H](O)CN2CCC3(CC2)CCN(c2ccncc2)C3=O)ccc2c1COC2=O`, in series [3], the bioavailability was found to be 37%. Also, the AUC/dose in the series on Rattus norvegicus [4] is 0.11 µM·kg·h/mg. Moreover, the Vd in [5] stood at 21.5 L/kg. Also, in [6], the clearance was 128 mL/min/kg. For the same molecule, the half-life in series [7] is 2 h.
Taken in the same sequence, the figures for `COc1cc(N2CCC3(CCN(C[C@H](O)c4ccc5c(c4C)COC5=O)CC3)C2=O)ccn1` were 66%, 1.2 µM·kg·h/mg, 5 L/kg, 20.8 mL/min/kg and 4.1 h.
Turning to `COc1nsc(N2CCC3(CCN(C[C@H](O)c4ccc5c(c4C)COC5=O)CC3)C2=O)n1`, the bioavailability in series [3] amounted to 47%. For the same molecule, the result with Rattus norvegicus [8] was inactive. For the same molecule, in the series on Rattus norvegicus [9], the Activity is given as -23 mmHg. The clearance in series [10] turned out to be 24.4 mL/min/kg; in [6], 9.6 mL/min/kg. In addition, the Vd is 1.7 L/kg in series [11] and 3 L/kg in series [5]. Moreover, the outcome in the series on Rattus norvegicus [12] and with Rattus norvegicus [13] was Active. In addition, the AUC/dose in the series on Rattus norvegicus [4] came to 1.8 µM·kg·h/mg. The half-life in series [14] is 1.3 h; in [7], 4.7 h.
On to `Cc1nccc(N2CCC3(CCN(C[C@H](O)c4ccc5c(c4C)COC5=O)CC3)C2=O)n1`, for which, in series [3], the bioavailability amounted to 120%. Also, in the series with Rattus norvegicus [8], the result was inactive. Also, the Activity with Rattus norvegicus [9] is -11 mmHg. The outcome with Rattus norvegicus [12] and with Rattus norvegicus [13] was Active. For the same molecule, in the series on Rattus norvegicus [4], the AUC/dose amounted to 1.6 µM·kg·h/mg. For the same molecule, the Vd in [5] turned out to be 4.4 L/kg. Besides, in series [6], the clearance is 30.3 mL/min/kg. In series [15], this molecule showed a pIC50 of 6.72. The half-life in [7] was 2.6 h.
Regarding `Cc1cc(N2CCC3(CCN(C[C@H](O)c4ccc5c(c4C)COC5=O)CC3)C2=O)sn1`, in series [3], the bioavailability was 45%. In the series with Rattus norvegicus [4], this molecule had an AUC/dose of 0.73 µM·kg·h/mg. The Vd in series [5] was found to be 3.2 L/kg. In series [6], the clearance was determined as 23 mL/min/kg. Besides, the pIC50 in series [15] was 7.74; in [16], 7.92. For the same molecule, the half-life in [7] was 2.4 h.
For `COc1nccc(N2CCC3(CCN(C[C@H](O)c4ccc5c(c4C)COC5=O)CC3)C2=O)n1`, the bioavailability in series [3] was 80%. In addition, the clearance in series [10] is 9.7 mL/min/kg; in [6] it was 7.8 mL/min/kg. Besides, the values for the Vd in [11] and in series [5] were 0.7 L/kg and 1.8 L/kg, respectively. In addition, the AUC/dose with Rattus norvegicus [4] is 3.8 µM·kg·h/mg. Further, the half-life in series [14] was 1 h; in series [7], 4.1 h. Further, the negative-log IC50 (pIC50) in series [15] was 7.85; in series [16], 8.30.
With `Cc1nsc(N2CCC3(CCN(C[C@H](O)c4ccc5c(c4C)COC5=O)CC3)C2=O)n1`, in series [3], the bioavailability was 106%. Moreover, the result with Rattus norvegicus [8] was inactive. The Activity in the series on Rattus norvegicus [9] is recorded as -10 mmHg. The result in the series on Rattus norvegicus [12] and in the series with Rattus norvegicus [13] was Active. The molecule also showed an AUC/dose in the series on Rattus norvegicus [4] of 1 µM·kg·h/mg. Besides, the Vd in series [5] came to 4.2 L/kg. For the same molecule, the clearance in [6] was determined as 41 mL/min/kg. In addition, the negative-log IC50 (pIC50) in series [16] is 8.10. The molecule also showed a half-life in [7] of 1.9 h.
With `Cc1c([C@@H](O)CN2CCC3(CC2)CCN(c2ccc(=O)n(C(F)F)n2)C3=O)ccc2c1COC2=O`, the figures for the pIC50 in series [1] and in [15] were 4.72 and 6.89, respectively. In addition, in the series filed under Homo sapiens, the Ratio IC50 came to 147.
Consider `Cc1c([C@@H](O)CN2CCC3(CC2)CN(c2ccns2)C(=O)O3)ccc2c1COC2=O`, for which the negative-log IC50 (pIC50) in series [15] is 5.29.
Turning to `Cc1c([C@@H](O)CN2CCC3(CC2)CCN(c2ccc(=O)n(C4CCCC4)n2)C3=O)ccc2c1COC2=O`, the negative-log IC50 (pIC50) is 4.87 in series [1] and 7.39 in series [15]. The Ratio IC50 in the series listed under Homo sapiens came to 329.
In turn, `Cc1cc(=O)n(C)nc1N1CCC2(CCN(C[C@H](O)c3ccc4c(c3C)COC4=O)CC2)C1=O` showed a negative logarithm of the IC50 (pIC50) in series [15] of 5.98.
In series [1], `Cc1nc(-n2cnnn2)ccc1[C@@H](O)CN1CCC2(CC1)CCN(c1ccc(=O)n(C)n1)C2=O` had a pIC50 of 4.76. Also, the Ratio IC50 in the series filed under Homo sapiens is 66.
For `Cc1c([C@@H](O)CN2CCC3(CC2)CCN(c2ccns2)C3=O)ccc2c1COC2=O`, in the series on Rattus norvegicus [8], the outcome was inactive. Moreover, the Activity in the series with Rattus norvegicus [9] is -6 mmHg. The outcome in the series with Rattus norvegicus [12] and with Rattus norvegicus [13] was Active.
Consider `CCn1nc(N2CCC3(CCN(C[C@H](O)c4ccc5c(c4C)COC5=O)CC3)C2=O)ccc1=O`, for which the negative logarithm of the IC50 (pIC50) in [1] was 5.12. Besides, the Ratio IC50 in the series filed under Homo sapiens turned out to be 99.
In series [17], `Cc1c([C@@H](O)CN2CCC3(CC2)CCN(c2ccc(S(C)(=O)=O)cn2)C3)ccc2c1COC2=O` gave a clearance of 24.2 mL/min/kg.
As for `Cc1nsc(N2CCC3(CCN(C[C@H](O)c4ccc5c(c4C)COC5=O)CC3)C2)n1`, in series [1], the negative-log IC50 (pIC50) is 5.38. The Ratio IC50 in the series listed under Homo sapiens stood at 17.
As to `Cc1c([C@@H](O)CN2CCC3(CC2)CN(c2ccc(=O)n(C)n2)C3)ccc2c1COC2=O`, the pIC50 in [15] was < 5.70.
For `Cn1nc(N2CCC3(CCN(C[C@H](O)c4ccc(-n5cnnn5)nn4)CC3)C2=O)ccc1=O`, the pIC50 is 5.51 in series [1] and 6.24 in series [15]. In the series filed under Homo sapiens, the Ratio IC50 was found to be 5.
`Cc1c([C@@H](O)CN2CCC3(CC2)CCN(c2cnn(C)c(=O)c2)C3=O)ccc2c1COC2=O` gave a pIC50 in [15] of 6.74.
With `Cc1c([C@@H](O)CN2CCC3(CC2)CCN(c2cn(C)c(=O)cn2)C3=O)ccc2c1COC2=O`, the pIC50 in series [1] was < 4.22.
Consider `Cc1c([C@@H](O)CN2CCC3(CC2)CCN(c2ccn(C)c(=O)c2)C3=O)ccc2c1COC2=O`, for which, in series [15], the negative-log IC50 (pIC50) is 5.12.
With `Cc1c([C@@H](O)[C@H](C)N2CCC3(CCN(c4ccc(=O)n(C)n4)C3=O)CC2)ccc2c1COC2=O`, the negative logarithm of the IC50 (pIC50) in [1] is < 4.22.
With `Cc1c([C@@H](O)CN2CCC3(CC2)CCN(c2ccns2)C3)ccc2c1COC2=O`, the pIC50 in series [15] is 7.57.
